One experiment addresses CDK9/Cyclin T1 (Homo sapiens (Human), UniProt P50750). The experiment in a line: CDK9 enzyme assay (LANCE ULight TR-FRET kinase assay). The experiment is classed as biochemical. Particulars: 1000 μM ATP, 100 nM ULight MBP, kinase reaction 1 hour. The gist of the method:
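Human CDK9/Cyclin T1 phosphorylating 100 nM ULight-MBP with 1000 μM ATP in HEPES/MgCl2 buffer, 1 h reaction. Stopped with 20 mM EDTA plus 0.5 nM Eu anti-phospho-MBP antibody, incubated 1 h, read by TR-FRET (ex 320 nm, em 615/665 nm).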
In general terms: TR-FRET usually uses a lanthanide donor and a delayed reading to cut background.

The next experiment relates to H929 cells. Description: Cell viability assay (Cell TiterGlo). Type of experiment: cell-based. The settings on record: Homo sapiens, NCI-H929, 24 hours at 37° C., Cell TiterGlo luminescence. As for the experimental part: The cell viability assay was performed using H929 cells. Cells were seeded in 96-well plates at 10,000 cells/well and, after overnight incubation, treated with compounds in a dose response of 3-fold dilutions from 10 μM to 0.005 μM ([…], 0.1% final DMSO concentration). After 24 hours at 37° C., cell viability was measured using Cell TiterGlo reagent (Promega) with a luminescence reader.
In general terms: In ATP-based viability assays light output follows the ATP content of the culture.

As usually defined, the IC50 is the point on the concentration scale where inhibition reaches its midpoint.

Structures are written as SMILES.

Chain of CDK9/Cyclin T1 (P50750 whole entry): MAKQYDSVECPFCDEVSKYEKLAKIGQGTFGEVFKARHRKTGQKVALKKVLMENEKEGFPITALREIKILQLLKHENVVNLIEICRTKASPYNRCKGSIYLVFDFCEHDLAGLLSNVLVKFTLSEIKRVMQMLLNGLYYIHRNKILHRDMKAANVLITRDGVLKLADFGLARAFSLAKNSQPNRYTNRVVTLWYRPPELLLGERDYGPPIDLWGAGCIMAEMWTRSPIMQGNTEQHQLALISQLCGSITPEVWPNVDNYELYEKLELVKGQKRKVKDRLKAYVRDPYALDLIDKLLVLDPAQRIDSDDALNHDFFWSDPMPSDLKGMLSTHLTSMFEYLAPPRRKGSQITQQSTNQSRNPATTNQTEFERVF
Chain of CDK9/Cyclin T1 (O60563 whole entry partner): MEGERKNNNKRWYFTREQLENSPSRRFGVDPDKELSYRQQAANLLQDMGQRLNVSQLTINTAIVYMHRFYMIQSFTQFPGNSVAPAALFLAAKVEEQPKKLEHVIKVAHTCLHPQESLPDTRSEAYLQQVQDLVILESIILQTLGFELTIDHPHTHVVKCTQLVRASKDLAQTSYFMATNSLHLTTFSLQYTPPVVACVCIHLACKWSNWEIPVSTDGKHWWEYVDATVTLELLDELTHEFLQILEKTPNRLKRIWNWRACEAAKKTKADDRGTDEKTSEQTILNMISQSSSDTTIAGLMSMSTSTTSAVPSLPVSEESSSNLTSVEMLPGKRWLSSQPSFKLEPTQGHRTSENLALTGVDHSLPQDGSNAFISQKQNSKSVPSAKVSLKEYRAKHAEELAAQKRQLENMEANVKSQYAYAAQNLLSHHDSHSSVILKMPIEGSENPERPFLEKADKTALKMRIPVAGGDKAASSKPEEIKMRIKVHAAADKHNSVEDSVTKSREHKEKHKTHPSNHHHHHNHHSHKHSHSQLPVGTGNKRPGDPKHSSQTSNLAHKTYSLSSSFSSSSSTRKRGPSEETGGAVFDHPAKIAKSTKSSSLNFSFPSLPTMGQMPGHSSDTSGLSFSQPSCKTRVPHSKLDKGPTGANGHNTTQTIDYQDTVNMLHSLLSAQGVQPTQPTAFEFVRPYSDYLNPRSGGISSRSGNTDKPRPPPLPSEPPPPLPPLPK

Take `CN(C)C(=O)CN1C2C=C(c3[nH]c4nccc5c4c3CN(C)c3ccc(F)cc3-5)CC1CCC2` (stereo not drawn) [Example 101, 2-[3-(10-fluoro-7-methyl-6,7-dihydro-4H-3,4,7-triazadibenzo[cd,f]azulen-5-yl)-9-azabicyclo[3.3.1]non-2-en-9-yl]-N,N-dimethylacetamide]: the IC50 is 0.11 µM on CDK9/Cyclin T1 and 0.091 µM in the experiment on H929 cells.

`CN1Cc2c(C3=CC4CCCC(C3)N4C(=O)CC#N)[nH]c3nccc(c23)-c2cc(F)ccc21` (stereo not drawn) [Example 102, 3-[3-(10-fluoro-7-methyl-6,7-dihydro-4H-3,4,7-triazadibenzo[cd,f]azulen-5-yl)-9-azabicyclo[3.3.1]non-2-en-9-yl]-3-oxopropanenitrile]: the concentration for half-maximal inhibition (IC50) against CDK9/Cyclin T1 was 0.044 µM; in the experiment with H929 cells it was 0.623 µM.

In the case of `CN(CCO)C(=O)CN1C2C=C(c3[nH]c4nccc5c4c3CN(C)c3ccc(F)cc3-5)CC1CCC2` (stereo not drawn) [Example 103, 2-[3-(10-fluoro-7-methyl-6,7-dihydro-4H-3,4,7-triazadibenzo[cd,f]azulen-5-yl)-9-azabicyclo[3.3.1]non-2-en-9-yl]-N-(2-hydroxyethyl)-N-methylacetamide], the values for the IC50 against CDK9/Cyclin T1 and with H929 cells were 0.086 µM and 0.051 µM, respectively.

As to `CN1Cc2c(C3=CC4CCCC(C3)N4CC(=O)N3CCC[C@H]3CO)[nH]c3nccc(c23)-c2cc(F)ccc21` (stereo partly drawn) [Example 104, 2-[3-(10-fluoro-7-methyl-6,7-dihydro-4H-3,4,7-triazadibenzo[cd,f]azulen-5-yl)-9-azabicyclo[3.3.1]non-2-en-9-yl]-1-[(2S)-2-(hydroxymethyl)pyrrolidin-1-yl]ethanone], the 50% inhibitory concentration (IC50) amounted to 0.057 µM against CDK9/Cyclin T1 and 0.065 µM with H929 cells.

Consider `CN1Cc2c(C3=CC4CCCC(C3)N4CC(=O)N3CC(O)C3)[nH]c3nccc(c23)-c2cc(F)ccc21` (stereo not drawn) [Example 105, 2-[3-(10-fluoro-7-methyl-6,7-dihydro-4H-3,4,7-triazadibenzo[cd,f]azulen-5-yl)-9-azabicyclo[3.3.1]non-2-en-9-yl]-1-(3-hydroxyazetidin-1-yl)ethanone], for which the IC50 amounted to 0.098 µM on CDK9/Cyclin T1 and 0.19 µM in the experiment with H929 cells.

Turning to `CN1Cc2c(C3=CC4CCCC(C3)N4CC(=O)N(C)C3CC(O)C3)[nH]c3nccc(c23)-c2cc(F)ccc21` (stereo not drawn) [Example 106, 2-[3-(10-fluoro-7-methyl-6,7-dihydro-4H-3,4,7-triazadibenzo[cd,f]azulen-5-yl)-9-azabicyclo[3.3.1]non-2-en-9-yl]-N-(3-hydroxycyclobutyl)-N-methylacetamide], the results for the IC50 against CDK9/Cyclin T1 and in the experiment with H929 cells were 0.066 µM and 0.13 µM, respectively.

As to `CN(CC(O)CO)C(=O)CN1C2C=C(c3[nH]c4nccc5c4c3CN(C)c3ccc(F)cc3-5)CC1CCC2` (stereo not drawn) [Example 107, N-(2,3-dihydroxypropyl)-2-[3-(10-fluoro-7-methyl-6,7-dihydro-4H-3,4,7-triazadibenzo[cd,f]azulen-5-yl)-9-azabicyclo[3.3.1]non-2-en-9-yl]-N-methylacetamide], the concentration for half-maximal inhibition (IC50) at CDK9/Cyclin T1 and in the experiment on H929 cells was 0.11 µM throughout.

As for `CN1Cc2c(C3=CC4CCCC(C3)N4CC(=O)O)[nH]c3nccc(c23)-c2cc(F)ccc21` (stereo not drawn) [Example 108, [3-(10-fluoro-7-methyl-6,7-dihydro-4H-3,4,7-triazadibenzo[cd,f]azulen-5-yl)-9-azabicyclo[3.3.1]non-2-en-9-yl]acetic acid], the IC50 turned out to be 0.11 µM on CDK9/Cyclin T1 and 1.2 µM in the experiment on H929 cells.

Consider `CN1Cc2c(C3=CCN(CC(=O)N(C)C4CC(O)C4)CC3)[nH]c3ncc(F)c(c23)-c2cc(F)ccc21` (stereo not drawn) [Example 109, 2-[4-(1,10-difluoro-7-methyl-6,7-dihydro-4H-3,4,7-triazadibenzo[cd,f]azulen-5-yl)-3,6-dihydropyridin-1(2H)-yl]-N-(3-hydroxycyclobutyl)-N-methylacetamide], for which the IC50 against CDK9/Cyclin T1 was 0.043 µM; with H929 cells, 0.01 µM.
